From patent publication US10435361B2, “Kinase inhibitors” (Topivert Pharma Limited, priority 2013, dated 2019)

Legend:
Format in all cases: cell-based
[1] = tested on: PBMCs; assay: Cell mitosis assay in PBMCs; conditions: Homo sapiens, PBMC, 5 μg/mL
Method: Peripheral blood mononucleocytes (PBMCs) from healthy subjects are separated from whole blood (Quintiles, London, UK) using a density gradient (Histopaque®-1077, Sigma-Aldrich, Poole, UK). The PBMCs (3 million cells per sample) are subsequently treated with 2% PHA (phytohaemagglutinin, Sigma-Aldrich, Poole, UK) for 48 hr, followed by a 20 hr exposure to varying concentrations of test compounds. At 2 hr before collection, PBMCs are treated with demecolcine (0.1 μg/mL; Invitrogen, Paisley, UK) to arrest cells in metaphase. To observe mitotic cells, PBMCs are permeabilised and fixed by adding Intraprep (50 μL; Beckman Coulter, France), and stained with anti-phospho-histone 3 (0.26 ng/L; #9701; Cell Signalling, Danvers, Mass.) and propidium iodide (1 mg/mL; Sigma-Aldrich, Poole, UK) as previously described (Muehlbauer P. A. and Schuler M. J., Mutation Research, 2003, 537:117-130). Fluorescence is observed using an ATTUNE flow cytometer (Invitrogen, Paisley, UK), gating for lymphocytes.

[2] = tested on: PBMCs; assay: LPS-induced TNFα/IL-8 release in PBMC cells; conditions: Homo sapiens, assay (b), read-out: IC50 Values for Inhibition of Cytokine Release PBMCs IL-8
How it was run: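 Healthy-donor PBMCs isolated by density gradient were pretreated with compound for 2 h, then stimulated with 1 ng/mL LPS (E. coli 0111:B4) for 24 h at 37° C., 5% CO2. IL-8 and TNFα in supernatants measured by sandwich ELISA.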

[3] = tested on: PBMCs; assay: IL-2 and IFN gamma release in CD3/CD28 stimulated PBMC cells; conditions: Homo sapiens, assay (c)
Method: PBMCs from healthy subjects are separated from whole blood using a density gradient (Lymphoprep, Axis-Shield Healthcare). Cells are added to a 96 well plate pre-coated with a mixture of CD3/CD28 monoclonal antibodies (0.3 μg/mL eBioscience and 3 μg/mL BD Pharmingen respectively). Compound at the desired concentration is then added to the wells and the plate left for 3 days under normal tissue culture conditions. […] The IC50 is determined from the dose response curve.

[4] = read-out: IC50 Values for Inhibition of Cytokine Release PBMCs IFNγ
[5] = read-out: IC50 Values for Inhibition of Cytokine Release PBMCs IL-2

Row | Structure (SMILES) | inhibition at 5 µg/mL [1] | IC50 [2] | IC50 [3, 4] | IC50 [3, 5]
1 | COc1cc(Nc2nccc(Oc3ccc(NC(=O)Nc4cc(C(C)(C)C)cc(NS(C)(=O)=O)c4OC)c4ccccc34)n2)cc(OCCOCCOCCO)c1 [83(c), N-(5-(tert-butyl)-3-(3-(4-((2-((3-(2-(2-(2-hydroxyethoxy)ethoxy)ethoxy)-5-methoxyphenyl)-amino)pyrimidin-4-yl)oxy)naphthalen-1-yl)ureido)-2-methoxyphenyl)methanesulfonamide] | 57.1% | 1.8 nM | – | –
2 | COc1cc(CO)cc(Nc2cc(Oc3ccc(NC(=O)Nc4cc(C(C)(C)C)cc(C(N)=O)c4OC)c4ccccc34)ccn2)c1 [84(g), 5-tert-Butyl-3-[[4-[[2-[3-(hydroxymethyl)-5-methoxyanilino]-4-pyridyl]oxy]-1-naphthyl]carbamoylamino]-2-methoxybenzamide] | 84.6% | 0.7 nM | 1.3 nM | 43.5 nM
3 | CNC(=O)c1cc(C(C)(C)C)cc(NC(=O)Nc2ccc(Oc3ccnc(Nc4cc(CO)cc(OC)c4)c3)c3ccccc23)c1OC [84(h), 5-tert-Butyl-3-[[4-[[2-[3-(hydroxymethyl)-5-methoxyanilino]-4-pyridyl]oxy]-1-naphthyl]carbamoylamino]-2-methoxy-N-methyl-benzamide] | 87% | 0.7 nM | 1.7 nM | 51.3 nM
4 | COc1cc(Nc2cc(Oc3ccc(NC(=O)Nc4cc(C(C)(C)C)cc(NS(C)(=O)=O)c4OC)c4ccccc34)ccn2)cc(C(=O)NCC(=O)N2CCOCC2)c1 [85(a), 3-[[4-[[4-[[5-tert-Butyl-3-(methanesulfonamido)-2-methoxyphenyl]-carbamoylamino]-1-naphthyl]oxy]-2-pyridyl]amino]-5-methoxy-N-(2-morpholino-2-oxo-ethyl)benzamide] | 46.3% | 0.8 nM | 11.8 nM | 53.8 nM
5 | C#Cc1cc(Nc2cc(Oc3ccc(NC(=O)Nc4cc(C(C)(C)C)cc(CO)c4OC)c4ccccc34)ccn2)cc(C(=O)NCCOCCOCCOC)c1 [85(b), 3-[[4-[[4-[[5-tert-Butyl-3-(hydroxymethyl)-2-methoxyphenyl]-carbamoylamino]-1-naphthyl]oxy]-2-pyridyl]amino]-5-ethynyl-N-[2-[2-(2-methoxyethoxy)ethoxy]ethyl]benzamide] | 25.3% | 1.5 nM | 16.2 nM | 123 nM
6 | C#Cc1cc(Nc2cc(Oc3ccc(NC(=O)Nc4cc(C(C)(C)C)cc(NS(C)(=O)=O)c4OC)c4ccccc34)ccn2)cc(C(=O)NCCCN2CCOCC2)c1 [85(d), 3-[[4-[[4-[[5-tert-Butyl-3-(methanesulfonamido)-2-methoxyphenyl]-carbamoylamino]-1-naphthyl]oxy]-2-pyridyl]amino]-5-ethynyl-N-(3-morpholinopropyl)-benzamide] | 33.2% | 2.1 nM | 15.4 nM | 94.3 nM
7 | COc1cc(Nc2cc(Oc3ccc(NC(=O)Nc4cc(C(C)(C)C)cc(NS(C)(=O)=O)c4OC)c4ccccc34)ccn2)cc(C(=O)NCC(C)(C)N2CCOCC2)c1 [85(h), 3-[[4-[[4-[[5-tert-Butyl-3-(methanesulfonamido)-2-methoxyphenyl]-carbamoylamino]-1-naphthyl]oxy]-2-pyridyl]amino]-5-methoxy-N-(2-methyl-2-morpholinopropyl)benzamide] | 27.5% | 2.2 nM | 23 nM | 150 nM
8 | COc1cc(Nc2cc(Oc3ccc(NC(=O)Nc4cc(C(C)(C)C)cc(NS(C)(=O)=O)c4OC)c4ccccc34)ccn2)cc(C(=O)NCCN2CCOC(C)(C)C2)c1 [85(m), 3-[[4-[[4-[[5-tert-Butyl-3-(methanesulfonamido)-2-methoxyphenyl]-carbamoylamino]-1-naphthyl]oxy]-2-pyridyl]amino]-N-[2-(2,2-dimethylmorpholin-4-yl)ethyl]-5-methoxybenzamide] | 26.4% | 1.8 nM | – | –
9 | COc1cc(Nc2cc(Oc3ccc(NC(=O)Nc4cc(C(C)(C)C)cc(NS(C)(=O)=O)c4OC)c4ccccc34)ccn2)cc(C(=O)NCCN2C[C@@H](C)O[C@@H](C)C2)c1 [85(n), 3-[[4-[[4-[[5-tert-Butyl-3-(methanesulfonamido)-2-methoxyphenyl]-carbamoylamino]-1-naphthyl]oxy]-2-pyridyl]amino]-N-[2-[(2R,6S)-2,6-dimethylmorpholin-4-yl]ethyl]-5-methoxybenzamide] | 26.6% | 1.9 nM | – | –
10 | COCCOCCNC(=O)c1cc(Nc2cc(Oc3ccc(NC(=O)Nc4cc(C(C)(C)C)cc(NS(C)(=O)=O)c4OC)c4ccccc34)ccn2)cc(OC)c1 [85(u), 3-[[4-[[4-[[5-tert-Butyl-3-(methanesulfonamido)-2-methoxyphenyl]-carbamoylamino]-1-naphthyl]oxy]-2-pyridyl]amino]-5-methoxy-N-[2-(2-methoxyethoxy)-ethyl]benzamide] | 38.4% | 1.4 nM | – | –
11 | COc1cc(Nc2nccc(Oc3ccc(NC(=O)Nc4cc(C(C)(C)C)cc(NS(C)(=O)=O)c4OC)c4ccccc34)n2)cc(OCCOCCOCCN(C)C)c1 [Example 15, N-(5-(tert-Butyl)-3-(3-(4-((2-((3-(2-(2-(2-(dimethylamino)ethoxy)ethoxy)ethoxy)-5-methoxyphenyl)amino)pyrimidin-4-yl)oxy)naphthalen-1-yl)ureido)-2-methoxyphenyl)-methanesulfonamide] | 97.5% | 0.9 nM | – | –
12 | COc1cc(Nc2nccc(Oc3ccc(NC(=O)Nc4cc(C(C)(C)C)cc(NS(C)(=O)=O)c4OC)c4ccccc34)n2)cc(OCCOCCOCCN2CCOCC2)c1 [Example 18, N-(5-(tert-Butyl)-2-methoxy-3-(3-(4-((2-((3-methoxy-5-(2-(2-(2-morpholinoethoxy)ethoxy)-ethoxy)phenyl)amino)pyrimidin-4-yl)oxy)naphthalen-1-yl)ureido)phenyl)methanesulfonamide] | 92.7% | 1 nM | – | –
13 | COCCOCCOCCOc1cc(Nc2nccc(Oc3ccc(NC(=O)Nc4cc(C(C)(C)C)cc(C(=O)NCC(=O)OC)c4OC)c4ccccc34)n2)cc(OC)c1 [Example 37, Methyl 2-(5-(tert-butyl)-2-methoxy-3-(3-(4-((2-((3-methoxy-5-(2-(2-(2-methoxyethoxy)-ethoxy)ethoxy)phenyl)amino)pyrimidin-4-yl)oxy)naphthalen-1-yl)ureido)benzamido)-acetate] | 45.9% | 2.2 nM | – | –
14 | COCCOCCOCCOc1cc(Nc2cc(Oc3ccc(NC(=O)Nc4cc(C(C)(C)C)cc(C(=O)NCCN(C)C)c4OC)c4ccccc34)ccn2)cc(OC)c1 [Example 76, 5-(tert-Butyl)-N-(2-(dimethylamino)ethyl)-2-methoxy-3-(3-(4-((2-((3-methoxy-5-(2-(2-(2-methoxyethoxy)ethoxy)ethoxy)phenyl)amino)pyridin-4-yl)oxy)naphthalen-1-yl)ureido)-benzamide] | 91.3% | 1.9 nM | – | –
15 | COCCOCCOCCS(=O)(=O)c1cc(Nc2cc(Oc3ccc(NC(=O)Nc4cc(C(C)(C)C)cc(NS(C)(=O)=O)c4OC)c4ccccc34)ccn2)cc(OC)c1 [Example 85(y), 1-[5-tert-Butyl-3-(methanesulfonamido)-2-methoxyphenyl]-3-[4-[2-[3-methoxy-5-[2-[2-(2-methoxyethoxy)ethoxy]ethylsulfonyl]anilino]pyridin-4-yl]oxy-1-naphthyl]urea] | 20.1% | 1.7 nM | – | –
